Laboratory results published in US20240269123A1, “MUSCLE REGENERATION PROMOTER” (priority 2021, published 2024).
Where a name gives a salt, the structure may show the parent alone.

Tests used:
histamine H3 receptor = conditions: statement taken from the literature; cited from earlier work
[1] = test system: tibialis anterior muscle damaged by snake venom cardiotoxin (CTX); assay: Muscle regeneration in cardiotoxin (CTX) muscle-damage model mouse, regenerated single muscle fiber area; format: in vivo, mouse (C57BL/6); conditions: once a day; for increase in the mean muscle fiber area as compared with the Vehicle administration group: day before CTX to 6 days after CTX, muscle collected 7 days after CTX; for histogram of the regenerated single-muscle fiber area as compared with the Vehicle administration group: 7 days after CTX
Method: Seven-week old C57BL/6 Male mice (CLEA Japan, Inc.) were purchased, and used for experiment at the age of 8 weeks.
A model animal to which muscle damage had been caused by administration of snake venom cardiotoxin (CTX) was used. The muscle-damaged model animal has been widely used in studies on the regeneration from muscle damage.
Under the anesthesia with isoflurane, 50 μL of 10 μM CTX was administered to the tibialis anterior muscle of the right hindlimb of the mouse. After 7 days of the administration of CTX, the tibialis anterior muscle was collected by dissection, and supplied to the preparation of a muscle tissue section.
Immediately after the collection of the tibialis anterior muscle, the tibialis anterior muscle was immersed in isopentane cooled with liquid nitrogen and was rapidly frozen. The frozen muscle tissue was cut into slices each having a thickness of 10 μm by using a cryostat (Leica Biosystems), and the slice was attached onto an antistripping coated slide glass (Matsunami Glass Ind., Ltd.).
A muscle tissue section was sufficiently air dried for 30 minutes under room temperature. After that, the muscle tissue section was fixed by immersing it in acetone cooled to −30° C. and treating at −30° ° C. for 20 minutes. The fixed section was air dried once and washed with PBS. Then the section was blocked by dropwisely adding a blocking reagent (Blocking One, NACALAI TESQUE, INC.) to the section and being subjected to the blocking treatment for 1 hour. Next, a primary antibody (Anti-laminin-2 (α-2 Chain) antibody, Rat monoclonal (Sigma-Aldrich)) obtained by being diluted 500 times with the blocking reagent was added dropwise, and the reaction was conducted at overnight at 4° C. Since laminin to which a primary antibody binds is a protein expressed in all muscle cells, the primary antibody was used in this experiment in order to measure the area of individual muscle cells in a section. The muscle tissue section after the reaction with the primary antibody was washed with PBS, and then was reacted for 1 hour with a secondary antibody (CF 488A Goat Anti-Rat IgG (H+L) (Biotium)) obtained by being diluted 500 times with the blocking reagent. The secondary antibody that is an anti-rat antibody conjugated with a fluorescent dye binds to the primary antibody, and stains the laminin. The muscle tissue section after the reaction with the secondary antibody was washed with PBS, and sealed by using “[…] Hard. Set with DAPI” (Vector), and then the fluorescence observation was performed with an inverted microscope FSX100 (Olympus). The “[…] Hard Set with DAPI” was used for staining the central nucleus of muscle cells.
The muscle regeneration was evaluated on the basis of the image data taken from the fluorescence observation. In this experiment, muscle cells each having a central nucleus (single muscle fiber having a central nuclei) were used as an indicator for regenerated muscle. After the image data was taken into image analysis software ImageJ (NIH), a muscle cell having a central nucleus was extracted. The cross-sectional area of the extracted individual cells was measured on the basis of the cell membrane stained with laminin. For the area measurement, “Analyze Particles” that is an add-in analysis program on ImageJ was used. The measurement results were shown as a distribution chart (histogram) of the areas and number of regenerated single-muscle fibers, and as an average value of the cross-sectional areas of all the regenerated single muscle fibers (mean muscle fiber area). […]

[2] = 6.3 mM in PBS with 5% tween 20, 10 μL intramuscular
[3] = 1 μM in PBS, 10 μL intramuscular

SMILES | selectivity of agonist activity for the histamine H3 receptor over other histamine receptors (histamine H3 receptor) | histogram of the regenerated single-muscle fiber area as compared with the Vehicle administration group [1, 3] | other results
CCCNC1CN(c2ccnc(N)n2)C1 [Compound 20, 4-[3-(propylamino)azetidin-1-yl]pyrimidin-2-amine] | selective histamine H3 receptor agonist | – | –
C[C@@H](N)Cc1c[nH]cn1 [R-α-methylhistamine dihydrochloride, (2R)-1-(1H-imidazol-4-yl)propan-2-amine] | – | – | increase in the mean muscle fiber area as compared with the Vehicle administration group [1, 2]: 12.3%; histogram of the regenerated single-muscle fiber area as compared with the Vehicle administration group [1, 2]: shifted to the right side
CNCCc1c[nH]cn1 [Compound 4, 2-(1H-imidazol-4-yl)-N-methylethan-1-amine] | non-selective histamine H3 receptor agonist | – | –
c1nc(CC2CCNCC2)c[nH]1 [Compound 13, 4-[(1H-imidazol-4-yl)methyl]piperidine] | selective histamine H3 receptor agonist | – | –
CN1CCC(Cc2c[nH]cn2)CC1 [Compound 15, 4-[(1H-imidazol-4-yl)methyl]-1-methylpiperidine] | selective histamine H3 receptor agonist | – | –
C[C@@H](N)Cc1c[nH]cn1 [Compound 1, (2R)-1-(1H-imidazol-4-yl)propan-2-amine] | selective histamine H3 receptor agonist | – | –
CNCCc1c[nH]cn1 [N^α-methylhistamine dihydrochloride, 2-(1H-imidazol-4-yl)-N-methylethan-1-amine] | – | shifted to the right side | increase in the mean muscle fiber area as compared with the Vehicle administration group [1, 3]: 7.1%
N=C(N)SCCc1c[nH]cn1 [Imetit dihydrobromide, 2-(1H-imidazol-4-yl)ethyl carbamimidothioate] | – | shifted to the right side | increase in the mean muscle fiber area as compared with the Vehicle administration group ([1]; 1 μM in PBS, 10 μL intramuscular, unit not given): 13.18
c1cc(Cc2c[nH]cn2)ccn1 [Compound 5, 4-[(1H-imidazol-4-yl)methyl]pyridine] | selective histamine H3 receptor agonist | – | –
c1cc(Cc2c[nH]cn2)ccn1 [Immethridine dihydrobromide, 4-[(1H-imidazol-4-yl)methyl]pyridine] | – | shifted to the right side | increase in the mean muscle fiber area as compared with the Vehicle administration group [1, 3]: 14.0%
